Reference: ChEMBL document CHEMBL1201862, “PubChem BioAssay data set” (2004)
Structures can show the parent of a compound that is named as a salt. One block for each compound: values may come before it. Active and inactive are the calls of the source. For most assays here, no stated cut-off is given here; in the data, active = IC50 of 5 µM or less and inactive = more.

How the values were obtained:
[1] = HIV-1 Vif–A3G interaction blockers – biochemical, TR-FRET, GST-Vif 1-94, biotin-A3G peptide, dose response retest, primary screen (AID 1117319); type: functional;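 further: TR-FRET signal of purified GST-Vif binding a biotinylated A3G peptide; inhibitors lower the FRET signal by blocking Vif and A3G binding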
[2] = CellTiter-Glo luminescence survival assay, SW480 colon tumor line, concentration-response curve, half-maximal inhibitory concentration (AID 1117338); type: functional
[3] = RKO cell viability reduction, dose response, CellTiter-Glo luminescence (AID 1117322); type: functional
[4] = cytotoxicity toward HCT116 cells – cell-based, CellTiter-Glo luminescence, IC50, dose response (AID 1117332); type: functional; conditions: HCT-116
[5] = SNU-C1 cell viability reduction, dose response, CellTiter-Glo luminescence (AID 1117323); type: functional, cell-based
[6] = cytotoxicity toward Colo320 cells – cell-based, CellTiter-Glo luminescence, IC50, dose response (AID 1117334); type: functional; conditions: COLO 320
[7] = cytotoxicity toward HT-29 cells – cell-based, CellTiter-Glo luminescence, IC50, dose response (AID 1117330); type: functional
[8] = Reduced DLD-1 viability, concentration-response, CellTiter-Glo luminescence (AID 1117352); type: functional
[9] = HCT116 cell viability decrease, GSK3B pretreatment – CellTiter-Glo, IC50, dose response (AID 1117339); type: functional; conditions: HCT-116
[10] = molecular target: Aryl hydrocarbon receptor (Homo sapiens, UniProt P35869); conditions: Potency;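 further: confirmatory quantitative high-throughput screen measuring activation of the AhR signaling pathway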
[11] = molecular target: T1, RNA-binding protein pos-1 (Caenorhabditis elegans, UniProt G5EF15); assay: disruptors of C. elegans POS-1 RNA interaction – biochemical, fluorescence polarization, dose response (AID 1964);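 further: purified POS-1 fused to maltose binding protein made in E. coli; potency of compounds blocking POS-1 binding to fluorescent RNA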
T1 sequence (G5EF15 whole entry): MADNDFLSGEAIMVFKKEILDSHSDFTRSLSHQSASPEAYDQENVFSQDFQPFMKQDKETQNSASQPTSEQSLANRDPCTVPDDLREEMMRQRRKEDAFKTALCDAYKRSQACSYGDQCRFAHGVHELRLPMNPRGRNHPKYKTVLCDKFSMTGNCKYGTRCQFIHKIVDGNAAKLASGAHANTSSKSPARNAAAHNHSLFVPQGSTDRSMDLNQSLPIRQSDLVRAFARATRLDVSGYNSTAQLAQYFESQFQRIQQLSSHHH

[12] = molecular target: T2, Zinc finger protein mex-5 (Caenorhabditis elegans, UniProt Q9XUB2); assay: potency of MEX-5 RNA-binding blockers – biochemical, C. elegans, fluorescence polarization, dose response (AID 1960)
T2 sequence (Q9XUB2 whole entry): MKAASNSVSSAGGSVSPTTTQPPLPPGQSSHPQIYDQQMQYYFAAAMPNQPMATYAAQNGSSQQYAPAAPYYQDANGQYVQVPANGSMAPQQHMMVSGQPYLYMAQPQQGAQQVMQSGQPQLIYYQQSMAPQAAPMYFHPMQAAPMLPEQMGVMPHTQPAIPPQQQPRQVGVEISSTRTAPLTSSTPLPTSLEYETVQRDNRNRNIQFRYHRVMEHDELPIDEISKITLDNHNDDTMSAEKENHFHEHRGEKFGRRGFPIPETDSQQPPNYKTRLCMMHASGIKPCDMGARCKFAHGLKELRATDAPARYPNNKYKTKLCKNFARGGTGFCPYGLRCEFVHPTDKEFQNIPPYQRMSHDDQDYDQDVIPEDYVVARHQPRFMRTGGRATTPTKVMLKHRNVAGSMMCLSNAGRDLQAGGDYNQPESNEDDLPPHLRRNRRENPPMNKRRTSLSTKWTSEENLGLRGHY

[13] = molecular target: T3, Mannose-6-phosphate isomerase (Homo sapiens, UniProt P34949); assay: MPI enzyme activity inhibition – biochemical, fluorescence intensity, coupled assay, primary screen (AID 1209)
T3 sequence (P34949 whole entry): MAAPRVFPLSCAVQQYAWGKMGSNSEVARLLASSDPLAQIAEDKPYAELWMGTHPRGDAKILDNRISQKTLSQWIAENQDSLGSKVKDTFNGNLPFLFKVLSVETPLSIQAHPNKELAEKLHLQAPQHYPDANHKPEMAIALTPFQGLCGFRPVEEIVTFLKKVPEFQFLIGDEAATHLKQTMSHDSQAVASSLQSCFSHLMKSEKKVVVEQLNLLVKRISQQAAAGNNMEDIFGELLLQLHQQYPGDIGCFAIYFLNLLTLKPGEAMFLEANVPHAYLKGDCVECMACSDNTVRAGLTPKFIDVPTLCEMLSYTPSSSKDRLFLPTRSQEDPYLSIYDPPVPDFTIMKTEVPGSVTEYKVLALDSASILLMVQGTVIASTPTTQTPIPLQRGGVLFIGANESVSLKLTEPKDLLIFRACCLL

Protein Tat = Protein Tat (Human immunodeficiency virus type 1 group M subtype B (isolate HXB2)(HIV-1), UniProt P04608); type: functional;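 further: tat binding to TAR RNA read out by fluorescence polarization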
[14] = IC50 of insulin release inhibition, rat insulinoma INS-1E line, 5 mM glucose, cell-based (AID 1117331); type: functional

Aryl hydrocarbon receptor, sequence (P35869 whole entry, the tested form may be a part): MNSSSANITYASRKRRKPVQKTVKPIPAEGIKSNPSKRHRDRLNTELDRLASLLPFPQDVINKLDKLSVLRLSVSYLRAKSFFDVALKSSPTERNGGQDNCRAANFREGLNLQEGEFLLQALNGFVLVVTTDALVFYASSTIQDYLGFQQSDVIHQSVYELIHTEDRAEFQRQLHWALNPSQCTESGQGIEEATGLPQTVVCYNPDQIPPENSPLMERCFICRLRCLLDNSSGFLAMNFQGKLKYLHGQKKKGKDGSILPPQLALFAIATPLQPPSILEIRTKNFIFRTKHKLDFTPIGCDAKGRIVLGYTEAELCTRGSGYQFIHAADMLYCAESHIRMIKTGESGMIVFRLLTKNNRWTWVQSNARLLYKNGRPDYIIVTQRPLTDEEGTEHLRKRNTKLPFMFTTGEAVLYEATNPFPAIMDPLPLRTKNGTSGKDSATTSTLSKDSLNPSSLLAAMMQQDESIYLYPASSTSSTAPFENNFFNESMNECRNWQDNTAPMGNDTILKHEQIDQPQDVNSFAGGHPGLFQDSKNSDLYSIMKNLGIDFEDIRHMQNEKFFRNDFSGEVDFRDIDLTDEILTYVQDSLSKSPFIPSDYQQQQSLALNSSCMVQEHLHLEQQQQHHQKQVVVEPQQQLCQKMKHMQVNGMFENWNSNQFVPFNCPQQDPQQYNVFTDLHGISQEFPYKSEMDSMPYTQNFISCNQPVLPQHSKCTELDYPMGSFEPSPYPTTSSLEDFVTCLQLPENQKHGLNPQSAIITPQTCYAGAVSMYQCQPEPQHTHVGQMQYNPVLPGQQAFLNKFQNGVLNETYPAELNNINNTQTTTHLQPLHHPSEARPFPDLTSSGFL
Protein Tat, sequence (P04608 whole entry): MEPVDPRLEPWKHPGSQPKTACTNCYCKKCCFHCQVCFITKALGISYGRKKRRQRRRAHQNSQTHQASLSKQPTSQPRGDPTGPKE

IC50 [1]: > 100000 nM (active)
SMILES: O=C(O)c1[nH]c2ccc(Cl)cc2c1CC(=O)N1CCN(C(=O)c2ccco2)CC1

SMILES: CN(C)c1ccc(C(=C2C=CC(=[N+](C)C)C=C2)c2ccccc2)cc1
IC50 [2]: 9.22 nM (active)
IC50 [3]: 118 nM (active)
IC50 [4]: 17.9 nM (active)
IC50 [5]: 35.4 nM (active)
IC50 [6]: 161 nM (active)
IC50 [7]: 9.82 nM (active)
IC50 [8]: 21.8 nM (active)
IC50 [9]: 9.83 nM (active)
AC50 [10]: 7940 nM (inconclusive)

EC50 [11]: 43900 nM (active)
EC50 [12]: 12900 nM (active)
IC50 [13]: 39500 nM (active)
IC50 (Protein Tat): > 100000 nM (active)
SMILES: Cc1cc(O)c(Oc2cc(C)cc(O)c2O)c(O)c1

SMILES: CN(C)CCCOc1nn(Cc2ccccc2)c2ccccc12 [BENZYDAMINE HYDROCHLORIDE]
IC50 [14]: 21400 nM (inactive)
